From patent publication US20250041429A1, “COMPOUND HAVING BTK PROTEIN DEGRADATION ACTIVITY, AND MEDICAL USES THEREOF” (UBIX THERAPEUTICS, INC., priority 2021, published 2025)

Target: T1, BTK protein (Homo sapiens, UniProt Q06187)
T1 construct: endogenous in cells; host or cells: TMD-8 cells
Test: Measurement of BTK protein degradation ability in TMD-8 cells (Western blotting)
Type: cell-based
Conditions: harvested after 24 hours; for BTK degradation (%) 1 nM: compound 1 nM; for BTK degradation (%) 10 nM: compound 10 nM; for BTK degradation (%) 100 nM: compound 100 nM
Method in brief: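 TMD-8 cells (1×10^6/mL) were treated for 24 h with compound at 0.1, 1, 10 μM or 0.0001–0.1 μM, with DMSO as vehicle control. RIPA lysates were normalized by BCA assay. BTK was detected by Western blot with anti-BTK, using GAPDH or β-actin as loading controls, and imaged on LI-COR Odyssey.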

T1 sequence (Q06187 whole entry): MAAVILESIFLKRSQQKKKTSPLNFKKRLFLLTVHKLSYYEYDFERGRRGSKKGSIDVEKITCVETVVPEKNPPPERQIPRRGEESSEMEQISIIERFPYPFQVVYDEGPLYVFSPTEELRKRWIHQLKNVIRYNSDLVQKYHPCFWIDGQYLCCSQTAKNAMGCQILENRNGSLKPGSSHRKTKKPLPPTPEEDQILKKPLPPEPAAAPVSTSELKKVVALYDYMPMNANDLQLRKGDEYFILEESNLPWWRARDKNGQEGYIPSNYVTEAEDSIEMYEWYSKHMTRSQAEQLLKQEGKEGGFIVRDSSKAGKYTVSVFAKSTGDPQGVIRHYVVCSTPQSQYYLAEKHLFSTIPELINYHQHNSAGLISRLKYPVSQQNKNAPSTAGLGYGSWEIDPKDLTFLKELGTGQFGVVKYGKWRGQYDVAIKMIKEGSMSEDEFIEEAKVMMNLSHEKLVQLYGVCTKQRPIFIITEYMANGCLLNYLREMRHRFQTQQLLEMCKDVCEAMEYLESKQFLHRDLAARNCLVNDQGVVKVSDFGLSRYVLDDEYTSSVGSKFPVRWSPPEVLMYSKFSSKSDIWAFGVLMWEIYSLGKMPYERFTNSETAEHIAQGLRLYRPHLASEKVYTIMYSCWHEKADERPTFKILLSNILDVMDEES

| BTK degradation (%) 1 nM | BTK degradation (%) 10 nM | BTK degradation (%) 100 nM | SMILES |
| --- | --- | --- | --- |
| 62.0% | 94.5% | 98.5% | Cc1cc(-c2ccnc(Nc3ccc(N4CCN(CC5CCN(C(=O)c6cccc(NC7CCC(=O)NC7=O)c6)CC5)CC4)cc3)n2)ccc1CNC(=O)c1cnn(C(C)C)c1 (stereo not shown) [Example 93, N-(4-(2-((4-(4-((1-(3-((2,6-dioxopiperidin-3-yl)amino)benzoyl)piperidin-4-yl)methyl)piperazin-1-yl)phenyl)amino)pyrimidin-4-yl)-2-methylbenzyl)-1-isopropyl-1H-pyrazole-4-carboxamide] |
| 4% | 10% | 37.5% | COc1ccc(C(=O)N2CCC(CN3CCN(c4ccc(Nc5nccc(-c6cc(F)cc(NC(=O)N7CC(OC(C)C)C7)c6C)n5)cc4)CC3)CC2)cc1N1CCC(=O)NC1=O [Example 90, N-(3-(2-((4-(4-((1-(3-(2,4-dioxotetrahydropyrimidin-1 (2H)-yl)-4-methoxybenzoyl)piperidin-4-yl)methyl)piperazin-1-yl)phenyl)amino)pyrimidin-4-yl)-5-fluoro-2-methylphenyl)-3-isopropoxyazetidine-1-carboxamide] |
| 54.5% | 92.5% | 99% | Cc1cc(-c2ccnc(Nc3cnn(C4CCN(CC5CCN(c6ccc7c(c6)C(=O)N(C6CCC(=O)NC6=O)C7=O)CC5)CC4)c3)n2)ccc1CNC(=O)c1cnn(C(C)(C)C)c1 (stereo not shown) [Example 37, 1-(tert-butyl)-N-(4-(2-((1-(1-((1-(2-(2,6-dioxopiperidin-3-yl)-1,3-dioxoisoindolin-5-yl)piperidin-4-yl)methyl)piperidin-4-yl)-1H-pyrazol-4-yl)amino)pyrimidin-4-yl)-2-methylbenzyl)-1H-pyrazole-4-carboxamide] |
| – | −2.5% | 10% | Cc1c(NC(=O)c2cn(C(C)(C)C)nn2)cc(F)cc1-c1ccnc(Nc2ccc3c(c2)CN(CC2CCN(c4ccc5c(c4)C(=O)N(C4CCC(=O)NC4=O)C5=O)CC2)CC3)n1 (stereo not shown) [Example 6, 1-(tert-butyl)-N-(3-(2-((2-((1-(2-(2,6-dioxopiperidin-3-yl)-1,3-dioxoisoindolin-5-yl)piperidin-4-yl)methyl)-1,2,3,4-tetrahydroisoquinolin-7-yl)amino)pyrimidin-4-yl)-5-fluoro-2-methylphenyl)-1H-1,2,3-triazole-4-carboxamide] |
| 20% | 85.5% | 98% | Cc1cc(-c2ccnc(Nc3ccc(N4CCN(CC5(C)CN(c6ccc7c(c6)C(=O)N(C6CCC(=O)NC6=O)C7=O)C5)CC4)cc3)n2)ccc1CNC(=O)N1CC(OC(C)C)C1 (stereo not shown) [Example 14, N-(4-(2-((4-(4-((1-(2-(2,6-dioxopiperidin-3-yl)-1,3-dioxoisoindolin-5-yl)-3-methylazetidin-3-yl)methyl)piperazin-1-yl)phenyl)amino)pyrimidin-4-yl)-2-methylbenzyl)-3-isopropoxyazetidine-1-carboxamide] |
| – | 84% | 93% | Cc1cc(-c2ccnc(Nc3ccc4c(c3)CN(CC3CCN(c5ccc6c(c5)C(=O)N(C5CCC(=O)NC5=O)C6=O)CC3)CC4)n2)ccc1CNC(=O)c1cn(C(C)(C)C)nn1 (stereo not shown) [Example 3, 1-(tert-butyl)-N-(4-(2-((2-((1-(2-(2,6-dioxopiperidin-3-yl)-1,3-dioxoisoindolin-5-yl)piperidin-4-yl)methyl)-1,2,3,4-tetrahydroisoquinolin-7-yl)amino)pyrimidin-4-yl)-2-methylbenzyl)-1H-1,2,3-triazole-4-carboxamide] |
| 29.0% | 83.0% | 97.5% | Cc1cc(-c2ccnc(Nc3ccc(CN4CCN(CC5CCN(c6cccc(OC7CCC(=O)NC7=O)c6)CC5)CC4)cc3)n2)ccc1CNC(=O)N1CC(OC(C)C)C1 (stereo not shown) [Example 63, N-(4-(2-((4-((4-((1-(3-((2,6-dioxopiperidin-3-yl)oxy)phenyl)piperidin-4-yl)methyl)piperazin-1-yl)methyl)phenyl)amino)pyrimidin-4-yl)-2-methylbenzyl)-3-isopropoxyazetidine-1-carboxamide] |
